Our source for the IC50 and half-life values is patent publication US20230174526A1, “BENZOTHIAZOLYL BIARYL COMPOUND, AND PREPARATION METHOD AND USE” (SHANGHAI RINGENE BIOPHARMA CO., LTD., priority 2020, published 2023).

Series [1] concerns the target T1, KRAS^G12C/SOS1 (Homo sapiens, UniProt P01116, G12C).
T1 construct: purchased CisBio
Kind of series: KRAS^G12C/SOS1 protein-protein interaction Binding assay (CisBio kit). As to conditions: class symbols. As for the experimental part:
CisBio’s KRAS^G12C/SOS1 kit was used to test the efficacy of the compound on inhibiting the protein-protein interaction between SOS1 and KRAS^G12Cby Binding assay.Results were expressed as IC50values.
Test methods: (1) the test compound was tested at a concentration of 1000 nM. Diluted to 3-fold diluted compound of a 200-fold final concentration of 100% DMSO solution in a 384-well plate at 10 concentrations. 50 nL of 200-fold final concentration of compound was transferred to the destination plate 384 well plate using a dispenser Echo 550.50 nL of 100% DMSO was added to the negative control wells and positive control wells; (2) 4-fold final concentration of Tag1 SOS1 solution was prepared using Diluent buffer; (3) 2.5 µL of 4-fold final concentration of Tag1 SOS1 solution was added to the 384-well plate; (4) 4-fold final concentration of Tag2 KRAS^G12C solution was prepared using Diluent buffer; (5) 2.5 µL of 4-fold final concentration of Tag2 KRAS^G12C solution was added to compound wells and positive control wells, respectively; 2.5 µL of diluent buffer was added to negative control wells; (6) the 384-well plate was centrifuged at 1000 rpm for 30 seconds, shaken and mixed, and incubated at room temperature for 15 min; (7) 1-fold final concentration of Anti Tag1 TB3+ solution and 1-fold final concentration of Anti Tag2 XL665 solution were prepared with Detection buffer, and 5 µL of the mixture was added to each well after mixing the two solutions; (8) the 384-well plate was centrifuged at 1000 rpm for 30 seconds, shaken and mixed, and incubated at room temperature for 120 minutes; (9) the Envision enzyme marker was used to read
Em665/620; (10) data analysis, calculation formula; where Min signal is the mean value of negative control wells, Max signal is the mean value of positive control wells.The log value of concentration was used as the X-axis and the percentage inhibition as the Y-axis to fit the quantitative efficacy curve using the log(inhibitor) vs. response Variable slope of the quantitative efficacy curve of the analytical software GraphPad Prism 5 to derive the IC50 value of each compound on the enzyme activity.The fitting formula was: Y=Bottom+(Top Bottom)/(1+10^A((LogIC50X)^∗ HillSlope)).

Series [2] in a line: Metabolic stability assay, mouse liver microsomes. Particulars: mouse liver microsomes 0.5 mg/mL, 1 µM compound, read-out: Liver microsomal stability (T½ /min) Mouse. Type of series: in vitro ADME. The method, then:
(§1) Metabolic stability assay: A warm incubation for metabolic stability was performed with a system of 150 µL of liver microsomes (final concentration 0.5 mg/mL) containing NADPH (final concentration 1 mM), 1 µM of the test compound and positive control midazolam or negative control atenolol, and the reaction was terminated with acetonitrile containing tinidazole at 0 min, 5 min, 10 min and 30 min, respectively. The reaction was vortexed for 10 min and centrifuged at 15000 rmp for 10 min, and 50 µL of supernatant was taken into the 96-well plate for sampling. The metabolic stability of the compound was calculated by measuring the relative reduction of the drugs.
In general terms: Liver microsomes are vesicles of endoplasmic reticulum, rich in cytochrome P450 enzymes.

Series [3] concerns the target T2, CYP1A2 (Homo sapiens, UniProt P05177).
T2 construct: a system of 100 µL of human liver microsomes (final concentration 0.2 mg/mL); from tissue; host or cells: human liver microsomes
T2 sequence (P05177 1-516): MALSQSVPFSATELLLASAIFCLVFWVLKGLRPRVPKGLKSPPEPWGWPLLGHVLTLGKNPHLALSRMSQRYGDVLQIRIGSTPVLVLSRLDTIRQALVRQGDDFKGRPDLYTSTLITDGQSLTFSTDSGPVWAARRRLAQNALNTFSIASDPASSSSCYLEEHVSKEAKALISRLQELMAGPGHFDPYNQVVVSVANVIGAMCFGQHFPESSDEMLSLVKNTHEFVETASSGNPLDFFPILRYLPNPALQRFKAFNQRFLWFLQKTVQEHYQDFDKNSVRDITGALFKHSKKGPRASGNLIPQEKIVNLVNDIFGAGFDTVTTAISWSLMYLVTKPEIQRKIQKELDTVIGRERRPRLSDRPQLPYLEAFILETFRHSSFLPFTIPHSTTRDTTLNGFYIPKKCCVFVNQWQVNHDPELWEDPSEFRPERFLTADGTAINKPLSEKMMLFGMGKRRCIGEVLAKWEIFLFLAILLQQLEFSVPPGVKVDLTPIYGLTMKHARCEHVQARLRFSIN
Kind of series: Direct inhibition test (DI test), CYP1A2. Type of series: in vitro ADME. As to conditions: human liver microsomes. As for the experimental part:
Direct inhibition test (DI test): direct inhibition warm incubation was performed with a system of 100 µL of human liver microsomes (final concentration 0.2 mg/mL) containing NADPH (final concentration 1 mM), 10 µM compound, positive inhibitor cocktail (ketoconazole 10 µM, quinidine 10 µM, sulfobenzyrazole 100 µM, α-naphthoflavone 10 µM, tranylcypromine 1000 µM), a negative control (BPS with 0.1% DMSO) and a mixed probe substrate (midazolam 10 µM, testosterone 100 µM, dextromethorphan 10 µM, diclofenac 20 µM, phenacetin100 µM, mephenytoin100 µM), and the reaction was terminated after a warm incubation for 20 min.The relative enzyme activity was calculated by measuring the relative amount of metabolites produced.

The nature of series [4]: Metabolic stability assay, human liver microsomes. The format is in vitro ADME. Particulars: human liver microsomes 0.5 mg/mL, 1 µM compound, read-out: Liver microsomal stability (T½ /min) human. As for the experimental part:
as §1

The subject of series [5] is MiaPaca-2 cells. The series can be described thus: Proliferation test method 2 (3D, Cell Titer Glo 3D), MiaPaca-2. The format is cell-based. As to conditions: Homo sapiens, MIA PaCa-2, 96 h, read-out: IC50 cell proliferation inhibitory activity against MiaPaca-2. The method, then:
(§2) Test method 2 (3D): The tumor cells in the logarithmic growth phase were diluted with culture solution to a certain concentration and inoculated on the 96-well plate on the ultra-low attachment surface, and the culture medium was 80 µL/well. Cells were incubated overnight at 37° C. in a humidity chamber. On the second day, a series of diluted test compounds (10 concentrations, 3 times dilution) were added to the plate, 20 µL/well, incubated in an incubator for 96h.The plates are removed and placed at room temperature and incubated with an equal volume of Cell Titer Glo®3D reagent for 1 h. The signal is detected by the En Vision™ plate reader. […] A four-parameter nonlinear regression curve was fitted to the percent inhibition for each concentration of the compound and the IC50 was calculated.

The subject of series [6] is NCI-H358 cells. The series can be described thus: Proliferation test method 2 (3D, Cell Titer Glo 3D), NCI-H358. The format is cell-based. Particulars: Homo sapiens, NCI-H358, 96 h, read-out: IC50 cell proliferation inhibitory activity against NCI-H358. As for the experimental part: as §2
(Cellular ATP, detected with luciferase, serves as a proxy for viable cell number.)

T1 sequence (P01116 1-188 isoform P01116-2 G12C): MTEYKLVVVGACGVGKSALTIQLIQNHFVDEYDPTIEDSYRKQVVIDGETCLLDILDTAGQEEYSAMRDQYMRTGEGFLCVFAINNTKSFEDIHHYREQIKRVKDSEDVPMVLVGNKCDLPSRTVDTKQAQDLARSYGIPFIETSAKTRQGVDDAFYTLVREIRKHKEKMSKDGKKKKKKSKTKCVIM

Consider `C=CC(=O)N1C[C@@H]2C(=O)N(C)c3cnc4c(F)c(-c5ccc(F)c6sc(N)nc56)c(Cl)cc4c3N2C[C@H]1C` (single isomer, unassigned) [Example 17-1], for which the IC50 in series [1] is 50 to 200 nM; in series [3], above 10000 nM. Further, the half-life at 1 µM in series [2] is above 30 min.

As for `C=CC(=O)N1CCN(c2c(C#N)c(OC[C@@H]3CCCN3C)nc3c(F)c(-c4ccc(F)c5sc(N)nc45)c(Cl)cc23)CC1` [Example 3, 4-(4-Piperazinylacryloylpiperazin-1-yl)-7-(2-Amino-7-Fluorobenzo[d]Thiazol-4-yl)-6-Chloro-8-Fluoro-2-(((S)-1-Methylpyrrolidin-2-Yl)Methoxy)Quinoline-3-Cyano], the IC50 in series [1] was below 50 nM; in series [3], above 10000 nM. In series [4], the half-life at 1 µM was above 30 min.

On to `C=CC(=O)N1CCN(c2c(C#N)cnc3c(F)c(-c4ccc(F)c5sc(N)nc45)c(Cl)cc23)CC1` [Example 8], for which the IC50 in series [1] is below 50 nM; in series [3], above 10000 nM; in series [5], below 200 nM; in series [6], below 200 nM. For the same compound, the half-life at 1 µM in series [2] was above 30 min.

Take `C=CC(=O)N1CCN(c2nc(OC[C@@H]3CCCN3C)nc3c(F)c(-c4ccc(F)c5sc(N)nc45)c(Cl)cc23)C[C@H]1C` [Example 11, 1-((2R)-4-(7-(2-Amino-7-Fluorobenzo [d] Thiazol-4-yl) -6-Chloro-8-Fluoro-2-(((S)-1-Methylpyrrolidin-2-yl) Methoxy) Quinazolin-4-yl)-2-Methylpiperazin-1-yl) Prop-2-En-1-One]: the IC50 is 50 to 200 nM in series [1], above 10000 nM in series [3], below 200 nM in series [5] and below 200 nM in series [6]. The half-life at 1 µM in series [4] was above 30 min.

As for `C=CC(=O)N1CCN(c2c(C#N)c(N3CC(N(C)C)C3)nc3c(F)c(-c4ccc(F)c5sc(N)nc45)c(Cl)cc23)CC1` [Example 21, 4-(4-acryloyl Piperazin-1-yl)-7-(2-Amino-7-Fluorobenzo [d] Thiazol-4-yl) -6-Chloro-2-(3-(Dimethylamino) Azetidine-1-yl)-8-Fluoroquinolin-3 -Cyano], the IC50 in series [1] is below 50 nM; in series [3], above 10000 nM.
